Reference: patent US9695154B2, “Heteroaryl inhibitors of sumo activating enzyme” (MILLENNIUM PHARMACEUTICALS, INC., priority 2013, dated 2017)

Target: T1, recombinant human SAE enzyme (Homo sapiens, UniProt Q9UBT2)
T1 sequence (Q9UBT2 1-640): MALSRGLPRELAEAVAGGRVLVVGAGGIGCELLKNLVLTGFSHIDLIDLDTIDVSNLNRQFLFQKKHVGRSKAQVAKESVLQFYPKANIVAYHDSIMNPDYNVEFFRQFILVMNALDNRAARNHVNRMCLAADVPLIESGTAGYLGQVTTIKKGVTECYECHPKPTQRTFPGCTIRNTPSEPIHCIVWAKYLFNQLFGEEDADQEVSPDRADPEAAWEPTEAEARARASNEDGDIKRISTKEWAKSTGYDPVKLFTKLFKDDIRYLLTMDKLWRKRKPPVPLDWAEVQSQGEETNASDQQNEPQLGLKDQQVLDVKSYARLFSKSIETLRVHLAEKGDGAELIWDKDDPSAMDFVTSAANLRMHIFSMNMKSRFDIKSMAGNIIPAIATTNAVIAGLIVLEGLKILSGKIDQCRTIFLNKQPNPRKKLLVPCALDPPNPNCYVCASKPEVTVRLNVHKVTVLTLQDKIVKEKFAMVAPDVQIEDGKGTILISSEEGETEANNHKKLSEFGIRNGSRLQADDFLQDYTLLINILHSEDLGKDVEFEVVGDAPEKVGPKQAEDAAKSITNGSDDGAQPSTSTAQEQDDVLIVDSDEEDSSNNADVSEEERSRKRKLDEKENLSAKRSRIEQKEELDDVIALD
T1 sequence (Q9UBE0 1-346 partner): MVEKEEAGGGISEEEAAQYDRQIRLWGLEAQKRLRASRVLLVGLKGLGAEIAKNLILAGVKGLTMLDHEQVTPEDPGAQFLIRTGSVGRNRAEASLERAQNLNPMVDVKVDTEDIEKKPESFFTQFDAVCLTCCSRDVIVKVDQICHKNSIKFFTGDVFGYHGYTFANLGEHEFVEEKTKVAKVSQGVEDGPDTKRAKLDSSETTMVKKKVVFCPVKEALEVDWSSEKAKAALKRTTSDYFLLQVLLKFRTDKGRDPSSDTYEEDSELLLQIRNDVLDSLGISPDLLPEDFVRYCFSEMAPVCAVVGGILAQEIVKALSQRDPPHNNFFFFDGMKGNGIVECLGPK
Experiment: SAE HTRF Enzyme Assay
Assay type: biochemical
Conditions: for IC50: class symbols A-C; for inhibition at 0.111 µM: compound concentration 0.111 μM, read-out: Percent Inhibition
Method in brief: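 Sumoylation of Ubc9-GST by recombinant human SAE was followed by time-resolved FRET between Eu-cryptate anti-Flag and allophycocyanin anti-GST antibodies. The enzyme step used low ATP (0.5 μM) at pH 7.5 and ran 105 min at 24° C.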

## NS(=O)(=O)OC[C@H]1C[C@@H](Nc2ncncc2C(=O)c2ccn(Cc3ccc(F)o3)c2)[C@@H](F)[C@@H]1O [Compound I-231, [(1R,2R,3R,4R)-3-fluoro-4-{[5-({1-[(5-fluoro-2-furyl)methyl]-1H-pyrrol-3-yl}carbonyl)pyrimidin-4-yl]amino}-2-hydroxycyclopentyl]methyl sulfamate]
  IC50: < 10 nM
  inhibition at 0.111 µM: 99%

## NS(=O)(=O)OC[C@H]1C[C@@H](Nc2ncncc2C(=O)c2ccn(Cc3sccc3Cl)n2)C[C@@H]1O [Compound I-232, [(1R,2S,4R)-4-{[5-({1-[(3-chloro-2-thienyl)methyl]-1H-pyrazol-3-yl}carbonyl)pyrimidin-4-yl]amino}-2-hydroxycyclopentyl]methyl sulfamate]
  IC50: < 10 nM
  inhibition at 0.111 µM: 97%

## NS(=O)(=O)OC[C@H]1C[C@@H](Nc2ccncc2C(=O)c2ccn(Cc3ccc(Cl)c(Cl)c3)c2)C[C@@H]1O [Compound I-233, {(1R,2S,4R)-4-[(3-{[1-(3,4-dichlorobenzyl)-1H-pyrrol-3-yl]carbonyl}pyridin-4-yl)amino]-2-hydroxycyclopentyl}methyl sulfamate]
  IC50: < 10 nM
  inhibition at 0.111 µM: 98%

## CCC#CCn1ccc(C(=O)c2cncnc2N[C@@H]2C[C@H](COS(N)(=O)=O)[C@@H](O)C2)n1 [Compound I-234, {(1R,2S,4R)-2-hydroxy-4-[(5-{[1-(pent-2-yn-1-yl)-1H-pyrazol-3-yl]carbonyl}pyrimidin-4-yl)amino]cyclopentyl}methyl sulfamate]
  IC50: 10 to 100 nM
  inhibition at 0.111 µM: 91%

## NS(=O)(=O)OC[C@H]1C[C@@H](Nc2ncncc2C(=O)c2ccn(Cc3ccc(C(F)F)o3)n2)C[C@@H]1O [Compound I-235, [(1R,2S,4R)-4-({5-[(1-{[5-(difluoromethyl)-2-furyl]methyl}-1H-pyrazol-3-yl)carbonyl]pyrimidin-4-yl}amino)-2-hydroxycyclopentyl]methyl sulfamate]
  IC50: < 10 nM
  inhibition at 0.111 µM: 100%

## COCC#CCn1ccc(C(=O)c2cncnc2N[C@@H]2C[C@H](COS(N)(=O)=O)[C@@H](O)[C@@H]2F)c1 [Compound I-236, {(1R,2R,3R,4R)-3-fluoro-2-hydroxy-4-[(5-{[1-(4-methoxybut-2-yn-1-yl)-1H-pyrrol-3-yl]carbonyl}pyrimidin-4-yl)amino]cyclopentyl}methyl sulfamate]
  IC50: 10 to 100 nM
  inhibition at 0.111 µM: 54%

## NS(=O)(=O)OC[C@H]1C[C@@H](Nc2ncncc2C(=O)c2ccn(Cc3cccc4nccn34)c2)[C@@H](F)[C@@H]1O [Compound I-237, {(1R,2R,3R,4R)-3-fluoro-2-hydroxy-4-[(5-{[1-(imidazo[1,2-a]pyridin-5-ylmethyl)-1H-pyrrol-3-yl]carbonyl}pyimidin-4-yl)amino]cyclopentyl}methyl sulfamate]
  IC50: 10 to 100 nM
  inhibition at 0.111 µM: 85%

## Cc1cc(C(=O)c2cncnc2N[C@@H]2C[C@H](COS(N)(=O)=O)[C@@H](O)C2)nn1Cc1cccc(Br)n1 [Compound I-238, [(1R,2S,4R)-4-{[5-({1-[(6-bromopyridin-2-yl)methyl]-5-methyl-1H-pyrazol-3-yl}carbonyl)pyrimidin-4-yl]amino}-2-hydroxycyclopentyl]methyl sulfamate]
  IC50: < 10 nM
  inhibition at 0.111 µM: 99%

## NS(=O)(=O)OC[C@H]1C[C@@H](Nc2ncncc2C(=O)c2ccn(Cc3cc(Br)ccc3Cl)n2)C[C@@H]1O [Compound I-239, {(1R,2S,4R)-4-[(5-{[1-(5-bromo-2-chlorobenzyl)-1H-pyrazol-3-yl]carbonyl}pyrimidin-4-yl)amino]-2-hydroxycyclopentyl}methyl sulfamate]
  IC50: < 10 nM
  inhibition at 0.111 µM: 99%

## NS(=O)(=O)OC[C@H]1C[C@@H](Nc2ncncc2C(=O)c2ccn(Cc3cccc(Br)c3)n2)[C@H](O)[C@@H]1O [Compound I-240, {(1R,2R,3S,4R)-4-[(5-{[1-(3-bromobenzyl)-1H-pyrazol-3-yl]carbonyl}pyrimidin-4-yl)amino]-2,3-dihydroxycyclopentyl}methyl sulfamate]
  IC50: < 10 nM
  inhibition at 0.111 µM: 100%

## NS(=O)(=O)OC[C@H]1C[C@@H](Nc2ncncc2C(=O)c2ccn(Cc3cc4ccccc4s3)n2)C[C@@H]1O [Compound I-241, {(1R,2S,4R)-4-[(5-{[1-(1-benzothiophen-2-ylmethyl)-1H-pyrazol-3-yl]carbonyl}pyrimidin-4-yl)amino]-2-hydroxycyclopentyl}methyl sulfamate]
  IC50: < 10 nM
  inhibition at 0.111 µM: 98%

## NS(=O)(=O)OC[C@H]1C[C@@H](Nc2ccncc2C(=O)c2ccn(Cc3cccc(Cl)c3)n2)[C@@H](F)[C@@H]1O [Compound I-242, {(1R,2R,3R,4R)-4-[(3-{[1-(3-chlorobenzyl)-1H-pyrazol-3-yl]carbonyl}pyridin-4-yl)amino]-3-fluoro-2-hydroxycyclopentyl}methyl sulfamate]
  IC50: < 10 nM
  inhibition at 0.111 µM: 96%

## NS(=O)(=O)OC[C@H]1C[C@@H](Nc2ncncc2C(=O)c2ccn(CCc3cccc(Br)c3)c2)[C@@H](F)[C@@H]1O [Compound I-243, [(1R,2R,3R,4R)-4-{[5-({1-[2-(3-bromophenyl)ethyl]-1H-pyrrol-3-yl}carbonyl)pyrimidin-4-yl]amino}-3-fluoro-2-hydroxycyclopentyl]methyl sulfamate]
  IC50: < 10 nM
  inhibition at 0.111 µM: 99%

## NS(=O)(=O)OC[C@H]1C[C@@H](Nc2ncncc2C(=O)c2cc(Cl)n(Cc3cccc(Br)c3)c2)[C@@H](F)[C@@H]1O [Compound I-244, {(1R,2R,3R,4R)-4-[(5-{[1-(3-Bromobenzyl)-5-chloro-1H-pyrrol-3-yl]carbonyl}pyrimidin-4-yl)amino]-3-fluoro-2-hydroxycyclopentyl}methyl sulfamate]
  IC50: < 10 nM
  inhibition at 0.111 µM: 98%

## NS(=O)(=O)OC[C@H]1C[C@@H](Nc2ncncc2C(=O)c2ccn(Cc3ccc(F)c(I)c3)n2)C[C@@H]1O [Compound I-245, {(1R,2S,4R)-4-[(5-{[1-(4-fluoro-3-iodobenzyl)-1H-pyrazol-3-yl]carbonyl}pyrimidin-4-yl)amino]-2-hydroxycyclopentyl}methyl sulfamate]
  IC50: < 10 nM
  inhibition at 0.111 µM: 100%

## NS(=O)(=O)OC[C@H]1C[C@@H](Nc2ccncc2C(=O)c2ccn(Cc3cccc(OC(F)F)c3)n2)C[C@@H]1O [Compound I-246, [(1R,2S,4R)-4-{[3-({1-[3-(difluoromethoxy)benzyl]-1H-pyrazol-3-yl}carbonyl)pyridin-4-yl]amino}-2-hydroxycyclopentyl]methyl sulfamate]
  IC50: < 10 nM
  inhibition at 0.111 µM: 97%

## NS(=O)(=O)OC[C@H]1C[C@@H](Nc2ncncc2C(=O)c2ccn(Cc3cccnc3)n2)[C@H](O)[C@@H]1O [Compound I-247, {(1R,2R,3S,4R)-2,3-dihydroxy-4-[(5-{[1-(pyridin-3-ylmethyl)-1H-pyrazol-3-yl]carbonyl}pyrimidin-4-yl)amino]cyclopentyl}methyl sulfamate]
  IC50: < 10 nM
  inhibition at 0.111 µM: 90%

## Cc1cccc(Cn2nc(C(=O)c3cncnc3N[C@@H]3C[C@H](COS(N)(=O)=O)[C@@H](O)C3)cc2C)c1 [Compound I-248, {(1R,2S,4R)-2-hydroxy-4-[(5-{[5-methyl-1-(3-methylbenzyl)-1H-pyrazol-3-yl]carbonyl}pyrimidin-4-yl)amino]cyclopentyl}methyl sulfamate]
  IC50: < 10 nM
  inhibition at 0.111 µM: 99%
